In brackets after ≈: the same amount, converted by molar mass. Like-named read-outs stand apart in the source and are kept apart here. Starred links: 1 amine or outer side, 2 acyl side, 3 side chain; linkers in the order of their positions; H or OH if unused. Residues, ends and D or L forms follow the SMILES beside them. Groups on a side chain read outwards from the residue. *: point of attachment. C20 diacid = O=C(O)CCCCCCCCCCCCCCCCCCC(=O)*; C18 diacid = O=C(O)CCCCCCCCCCCCCCCCC(=O)*; γGlu = O=C(O)[C@H](CCC(=O)[*:2])N[*:1]; AEEA = NCCOCCOCC(=O)O Bounds are passed on as bounds.

One series concerns the target T1, human CRF2α receptor (Homo sapiens, UniProt Q13324).
T1 construct: expressed in transfected cells; host or cells: TeloHEAC
T1 sequence (Q13324 1-411): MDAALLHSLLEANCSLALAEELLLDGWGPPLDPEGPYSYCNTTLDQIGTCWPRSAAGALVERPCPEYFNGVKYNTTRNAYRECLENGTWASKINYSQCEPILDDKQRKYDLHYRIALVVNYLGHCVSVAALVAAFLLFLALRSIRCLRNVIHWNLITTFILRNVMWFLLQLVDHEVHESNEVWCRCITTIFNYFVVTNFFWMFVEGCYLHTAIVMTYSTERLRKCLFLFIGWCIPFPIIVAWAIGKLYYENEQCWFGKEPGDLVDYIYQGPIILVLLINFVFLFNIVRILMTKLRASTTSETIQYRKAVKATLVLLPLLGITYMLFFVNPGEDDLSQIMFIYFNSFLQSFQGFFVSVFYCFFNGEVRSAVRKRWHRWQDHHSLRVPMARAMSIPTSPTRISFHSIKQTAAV
The experiment in a line: cAMP agonism at human CRF2 α receptor in TeloHEAC cells (Example 7). In kind it is cell-based. Particulars: cAMP HTRF, TeloHEAC cells stably expressing human CRF2 α, 0% HSA; read-out: EC50 [nM], 0% HSA. The method, boiled down: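 Cryopreserved cells are thawed, washed and resuspended in IBMX-containing (2 mM) HEPES-buffered HBSS with or without 0.1% HSA. Compound incubation runs 30 min at room temperature with 2000 cells per well, then cAMP is measured by time-resolved FRET. Potency is expressed as EC50, efficacy relative to urocortin 2 at 1000 nM.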
For orientation: Time-resolved FRET reads energy transfer from a long-lived donor to a nearby acceptor.

The subject of another series is rat CRF2R α receptor. The experiment in a line: cAMP agonism at rat CRF2R α receptor in A7R5 rat aortic smooth muscle cells (Example 8). To be noted: cAMP HTRF, A7R5 rat aortic smooth muscle cell line, 0% HSA. Type of series: cell-based. An outline of the steps: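 Thawed cryopreserved A7R5 cells in HBSS/20 mM HEPES (0 or 0.1% HSA) with 2 mM IBMX, 2000 cells/well, were exposed to compound for 30 min at room temperature. cAMP was read by HTRF (665/620 nm ratio) after 1 h with lysis reagents. Activity was normalised to 1000 nM urocortin 2 as 100%, and EC50 was taken as the concentration giving 50% of maximal activation.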

Another series concerns the target T2, CRF1R receptor (Homo sapiens, UniProt P34998).
T2 construct: host or cells: CHO-K1 clone 2
T2 sequence (P34998 24-415): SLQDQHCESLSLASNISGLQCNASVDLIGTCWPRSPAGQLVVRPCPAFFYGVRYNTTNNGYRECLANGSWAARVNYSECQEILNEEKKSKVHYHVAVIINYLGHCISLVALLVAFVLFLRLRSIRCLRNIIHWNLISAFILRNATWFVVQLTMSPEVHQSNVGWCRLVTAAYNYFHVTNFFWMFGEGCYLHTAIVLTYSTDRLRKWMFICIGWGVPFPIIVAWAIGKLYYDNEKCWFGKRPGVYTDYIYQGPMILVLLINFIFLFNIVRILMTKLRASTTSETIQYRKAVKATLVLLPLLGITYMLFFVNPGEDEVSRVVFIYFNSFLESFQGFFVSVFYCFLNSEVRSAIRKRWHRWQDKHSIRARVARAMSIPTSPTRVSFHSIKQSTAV
The experiment in a line: cAMP activity at anti-target CRF1R, CRF1R-overexpression CHO cell line (Example 9). Type of series: cell-based. To be noted: for EC50: 0% HSA. An outline of the steps:
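cAMP accumulation was read by HTRF after 30 min at room temperature of compound treatment. Cells were cryopreserved CHO cells overexpressing CRF1R, plated at 2000/well in IBMX (2 mM)-containing HBSS/HEPES buffer with 0 or 0.1% HSA. Activity was normalized to 1000 nM UCN2 as 100%.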

Series [1] is described as follows: Solubility in buffer systems by UPLC-UV (Example 13). In kind it is physicochemical. The method, then: Prior to performing the solubility measurements, the purity of the compounds was determined through UPLC/MS. […] Therefore, solutions from solid samples were prepared in a buffer system with a concentration of 10 mg/mL compound based on the previously determined % purity.
UPLC-UV was performed after 1 hour of gentle agitation from the supernatant, which was obtained after 15 minutes of centrifugation at 2500 RCF (relative centrifugal acceleration). The solubility was determined by the comparison of the UV peak area of a 2 μL-injection of a buffered sample diluted 1:10 with a standard curve of a reference compound with known concentration. The different UV extinction coefficients of sample and reference compound were calculated based on the different amino acid sequences and considered in the concentration calculation.

Where [2] appears, read: CRF1R-overexpression CHO cell line.
The mark [3] stands for this setting: CRF1R-overexpression CHO cell line, read-out: Emax (%).
Setting [4] is: pH 7.4, Solubility in Buffer C [mg/ml].

Regarding `CC[C@H](C)[C@H](N)C(=O)N[C@H](C(=O)N[C@@H](CC(C)C)C(=O)N[C@@H](CO)C(=O)N[C@@H](CC(C)C)C(=O)N[C@@H](CC(=O)O)C(=O)N[C@H](C(=O)N1CCC[C@H]1C(=O)N[C@H](C(=O)N[C@@H](CCCCN)C(=O)N[C@@H](CC(C)C)C(=O)N[C@@H](CCCCNC(=O)COCCOCCNC(=O)COCCOCCNC(=O)CC[C@H](NC(=O)CCCCCCCCCCCCCCCCC(=O)O)C(=O)O)C(=O)N[C@@H](CCC(N)=O)C(=O)N[C@H](C(=O)N[C@@H](CC(C)C)C(=O)N[C@@H](CC(C)C)C(=O)N[C@@H](CCC(=O)O)C(=O)N[C@@H](CCC(N)=O)C(=O)N[C@@H](CCC(=O)O)C(=O)N[C@@H](CCCNC(=N)N)C(=O)N[C@@H](CCC(N)=O)C(=O)N[C@@H](CCCNC(=N)N)C(=O)N[C@@H](CCCCN)C(=O)N[C@@H](CCC(=O)O)C(=O)N[C@@H](CCCNC(=N)N)C(=O)N[C@@H](CCC(N)=O)C(=O)N[C@@H](CCC(N)=O)C(=O)N[C@@H](C)C(=O)N[C@@H](CCC(=O)O)C(=O)N[C@H](C(=O)N[C@@H](CC(N)=O)C(=O)N[C@@H](C)C(=O)N[C@@H](CCC(N)=O)C(=O)N[C@H](C(=O)N[C@@H](CC(C)C)C(=O)N[C@@H](C)C(=O)N[C@@H](CCC(N)=O)C(=O)N[C@H](C(N)=O)C(C)C)[C@@H](C)CC)[C@@H](C)O)[C@@H](C)CC)[C@@H](C)CC)C(C)C)C(C)C` [compound 39] (H-IVLSLDVPIKLK([AEEA-AEEA-γGlu-C18 diacid])QILLEQERQRKERQQAETNAQILAQV-NH2), the EC50 at human CRF2α receptor was 0.65 nM; with rat CRF2R α receptor, 2.04 nM; at CRF1R receptor (setting [2]), > 1000 nM. Also, the Emax at CRF1R receptor (setting [3]) came to 13.3%. In addition, in series [1] (setting [4]), the solubility at 1 h worked out at 10300 µg/mL (≈ 2000 µM).

For the compound `CC[C@H](C)[C@H](N)C(=O)N[C@H](C(=O)N[C@@H](CC(C)C)C(=O)N[C@@H](CO)C(=O)N[C@@H](CC(C)C)C(=O)N[C@@H](CC(=O)O)C(=O)N[C@H](C(=O)N1CCC[C@H]1C(=O)N[C@H](C(=O)N[C@@H](CCCCN)C(=O)N[C@@H](CC(C)C)C(=O)N[C@@H](CCCCNC(=O)COCCOCCNC(=O)COCCOCCNC(=O)CC[C@H](NC(=O)CCCCCCCCCCCCCCCCC(=O)O)C(=O)O)C(=O)N[C@@H](CCC(N)=O)C(=O)N[C@H](C(=O)N[C@@H](CC(C)C)C(=O)N[C@@H](CC(C)C)C(=O)N[C@@H](CCC(=O)O)C(=O)N[C@@H](CCC(N)=O)C(=O)N[C@@H](C)C(=O)N[C@@H](CCCCN)C(=O)N[C@@H](CCC(N)=O)C(=O)N[C@@H](CCCCN)C(=O)N[C@@H](CCCCN)C(=O)N[C@@H](CC(C)C)C(=O)N[C@@H](CCCNC(=N)N)C(=O)N[C@@H](C)C(=O)N[C@@H](CCC(N)=O)C(=O)N[C@@H](C)C(=O)N[C@@H](CCC(=O)O)C(=O)N[C@H](C(=O)N[C@@H](CC(N)=O)C(=O)N[C@H](C(=O)N[C@@H](CCCNC(=N)N)C(=O)N[C@H](C(=O)N[C@@H](CC(C)C)C(=O)N[C@@H](CCC(=O)O)C(=O)N[C@@H](CCCNC(=N)N)C(=O)N[C@H](C(N)=O)C(C)C)[C@@H](C)CC)C(C)C)[C@@H](C)O)[C@@H](C)CC)[C@@H](C)CC)C(C)C)C(C)C` [compound 43] (H-IVLSLDVPIKLK([AEEA-AEEA-γGlu-C18 diacid])QILLEQAKQKKLRAQAETNVRILERV-NH2; N-terminus assumed), the EC50 at human CRF2α receptor was found to be 1.9 nM; with rat CRF2R α receptor it was 11.5 nM. For the same compound, the solubility at 1 h in series [1] (setting [4]) was > 9800 µg/mL.

Turning to `CC[C@H](C)[C@H](NC(=O)[C@H](CCC(N)=O)NC(=O)[C@H](CCC(=O)O)NC(=O)[C@H](CC(C)C)NC(=O)[C@H](CC(C)C)NC(=O)[C@H](CCC(N)=O)NC(=O)[C@H](CCCCN)NC(=O)[C@H](CC(N)=O)NC(=O)[C@H](CCCCN)NC(=O)[C@H](CCC(=O)O)NC(=O)[C@H](C)NC(=O)[C@H](CCC(N)=O)NC(=O)[C@H](CCC(N)=O)NC(=O)[C@H](CCCNC(=N)N)NC(=O)[C@H](CCC(=O)O)NC(=O)[C@H](CCCCN)NC(=O)[C@H](CCCCN)NC(=O)[C@H](CCC(N)=O)NC(=O)[C@H](CCCCN)NC(=O)[C@H](CCC(N)=O)NC(=O)[C@H](CCC(N)=O)NC(=O)[C@H](CCCCN)NC(=O)[C@H](Cc1ccccc1)NC(=O)[C@H](CC(C)C)NC(=O)[C@@H](NC(=O)[C@H](CCC(N)=O)NC(=O)[C@H](CCCCNC(=O)COCCOCCNC(=O)COCCOCCNC(=O)CC[C@H](NC(=O)CCCCCCCCCCCCCCCCCCC(=O)O)C(=O)O)NC(=O)[C@@H](NC(=O)[C@H](CCCCN)NC(=O)[C@@H](NC(=O)[C@@H]1CCCN1C(=O)[C@@H](NC(=O)[C@H](CC(=O)O)NC(=O)[C@H](CC(C)C)NC(=O)[C@H](CO)NC(=O)[C@H](CC(C)C)NC(=O)[C@@H](NC(=O)[C@@H](N)Cc1ccccc1)[C@@H](C)O)C(C)C)[C@@H](C)O)[C@@H](C)CC)[C@@H](C)CC)C(N)=O` [compound 58] (H-FTLSLDVPTKIK([AEEA-AEEA-γGlu-C20 diacid])QILFKQQKQKKERQQAEKNKQLLEQI-NH2; N-terminus assumed), the concentration giving a half-maximal response (EC50) worked out at 0.28 nM at human CRF2α receptor and 0.72 nM in the series on rat CRF2R α receptor. On CRF1R receptor (CHO), this compound yielded an Emax of 9.12%. Also, the solubility at 1 h in series [1] (Buffer B: 100 mM acetate buffer, pH 4.5, 2.7 mg/ml m-cresol, target 10 mg/ml, read-out: Solubility in Buffer B) is > 9500 µg/mL; in series [1] (Buffer C: 100 mM phosphate buffer, pH 7.4, target 10 mg/ml, read-out: Solubility in Buffer C), > 9400 µg/mL.

Take `CC[C@H](C)[C@H](NC(=O)[C@H](CCC(N)=O)NC(=O)[C@H](CCCCNC(=O)COCCOCCNC(=O)COCCOCCNC(=O)CC[C@H](NC(=O)CCCCCCCCCCCCCCCCCCC(=O)O)C(=O)O)NC(=O)[C@@H](NC(=O)[C@H](CCCCN)NC(=O)[C@@H](NC(=O)[C@@H]1CCCN1C(=O)[C@@H](NC(=O)[C@H](CC(=O)O)NC(=O)[C@H](CC(C)C)NC(=O)[C@H](CO)NC(=O)[C@H](CC(C)C)NC(=O)[C@@H](NC(=O)[C@@H](N)Cc1ccccc1)[C@@H](C)O)C(C)C)[C@@H](C)O)[C@@H](C)CC)C(=O)N[C@@H](CC(C)C)C(=O)N[C@@H](CC(C)C)C(=O)N[C@@H](CCCCN)C(=O)N[C@@H](CCC(N)=O)C(=O)N[C@@H](CCC(N)=O)C(=O)N[C@@H](CCCCN)C(=O)N[C@@H](CCC(N)=O)C(=O)N[C@@H](CCCCN)C(=O)N[C@@H](CCCCN)C(=O)N[C@@H](CCC(=O)O)C(=O)N[C@@H](CCCNC(=N)N)C(=O)N[C@@H](CCC(N)=O)C(=O)N[C@@H](CCC(N)=O)C(=O)N[C@@H](C)C(=O)N[C@@H](CCC(=O)O)C(=O)N[C@H](C(=O)N[C@@H](CC(N)=O)C(=O)N[C@@H](CCCCN)C(=O)N[C@@H](CCC(N)=O)C(=O)N[C@@H](CC(C)C)C(=O)N[C@@H](CC(C)C)C(=O)N[C@@H](CCC(=O)O)C(=O)N[C@@H](CCCNC(=N)N)C(=O)N[C@H](C(N)=O)C(C)C)[C@@H](C)O` [compound 61] (H-FTLSLDVPTKIK([AEEA-AEEA-γGlu-C20 diacid])QILLKQQKQKKERQQAETNKQLLERV-NH2): the EC50 on human CRF2α receptor was 0.38 nM; in the series on rat CRF2R α receptor, 0.94 nM; on CRF1R receptor (setting [2]), > 1000 nM. Further, on CRF1R receptor (setting [3]), the Emax is 3.31%. The solubility at 1 h is > 10600 µg/mL in series [1] (pH 4.5, Solubility in Buffer B [mg/ml]) and > 9500 µg/mL in series [1] (setting [4]).

What is called EC50 is the concentration needed to bring the measured effect to its halfway point. Usually Emax stands for the maximal effect, on the per cent scale that the assay sets. One may read the solubility as how much of the substance goes into solution per volume.

Values taken from US12679878B2, “CRF2 receptor agonists and their use in therapy” (SANOFI, priority 2020, dated 2026).
